Measurements published in patent US11504368B2, “2,6-diamino-3,4-dihydropyrimidin-4-one derivatives and use thereof in therapy” (THOMAS HELLEDAYS STIFTELSE FÖR MEDICINSK FORSKNING, priority 2018, dated 2022).

Key:
[1] = test system: colorectal cancer patient-derived xenograft; conditions: colorectal cancer patient-derived xenograft mouse models; Ju et al. (2019); cited from earlier work
MTHFD2 [2] = target: T1, MTHFD2 (Homo sapiens (Human), UniProt P13995); conditions: Fu et al. Nat. Commun. (2017); cited from earlier work
MTHFD2 [3] = target: T1, MTHFD2; assay: Inhibition of MTHFD2 (NAD(P)H-Glo luminescence); type: biochemical; conditions: 3.4 nmol/L MTHFD2, 5 μmol/L folitixorin, 250 μmol/L NAD+; mean of at least 3 independent measurements
Protocol: DMSO was used as negative control. The serial dilution in DMSO, from compound DMSO stock solution, was created by dispensing from a 384-well low dead volume microplate (LP-0200, Labcyte) and a 384-well polypropylene microplate 2.0 (PP-0200, Labcyte). A total of 2.5 μL MTHFD2 was preincubated with compound or DMSO for 10 min. The enzymatic reaction was initiated by adding 2.5 μL folitixorin (F680350, Toronto Research Chemicals). For background control, 5 μL buffer was added to the well. […] The final concentrations of all reagents in a total assay volume of 5 μL per well were 50 mmol/L Tris-HCl at pH 8.0, 100 mmol/L NaCl, 5 mmol/L MgCl2, 25 mmol/L Na3PO4 at pH 8.0, 0.005% (v/v) Tween-20, and 2 mmol/L 2-mercaptoethanol. After 15 min reaction time, 5 μL NAD(P)H-Glo detection reagent (G9061 or G9062, Promega) was dispensed in all wells and the plate was incubated for 60 min. Luminescence was measured on a plate reader (Envision, PerkinElmer or Sense, Hidex). The light signal produced is proportional to the amount of NAD(P)H in the sample. IC50 values were determined by fitting a four parameter sigmoidal curve model using XLfit (IDBS). Reported IC50 values are the mean of at least 3 independent measurements.

HL-60 cells = assay: Cancer cell viability assay (HL-60, resazurin); type: cell-based; conditions: Homo sapiens, 96 h, mean of at least 3 independent measurements, read-out: HL60 cell proliferation inhibition EC50
Protocol: HL-60 cells (human promyelocytic leukemia cells) were seeded in a 384-well plate at a density of 2,000 cells per well in 50 μL induction medium and treated with vehicle (DMSO) or an 11-point concentration range with 3-fold dilution in concentration of compound. Each assay point was run in duplicate. Wells without cells but with DMSO were used as negative controls. The cells were left to proliferate over a period of 96 h, in an incubator at 37° C. and 5% CO2, followed by an addition of 10 μL […] resazurin sodium salt (199303, Sigma-Aldrich) dissolved in DPBS (14190, Gibco). After 4 h of incubation at 37° C. and 5% CO2, the fluorescent signal was measured using an excitation wavelength of 544 nm and an emission wavelength of 595 nm in a Hidex Sense plate reader. Cell plates were incubated in boxes with damp paper tissues to avoid evaporation. All additions, except compound and DMSO, were done using the Multidrop Combi (Thermo Fisher Scientific). DMSO and compounds were pre-dispensed with an Echo 550 Liquid handler (Labcyte) in black, clear bottom, TC-treated and sterile 384-well plates (3764, Corning). Growth medium consisted of RPMI 1640 GlutaMAX (61870, Gibco), 10% (v/v) FBS (10500, Gibco), and 1% (v/v) P/S (15070, Gibco). Induction medium consisted of RPMI 1640 GlutaMAX (61870, Gibco), 5% (v/v) FBS (10500, Gibco), and 1% (v/v) P/S (15070, Gibco). EC50 values were determined by fitting a four parameter sigmoidal curve model using XLfit (IDBS). Reported EC50 values are the mean of at least 3 independent measurements.

T1 sequence (P13995 36-350): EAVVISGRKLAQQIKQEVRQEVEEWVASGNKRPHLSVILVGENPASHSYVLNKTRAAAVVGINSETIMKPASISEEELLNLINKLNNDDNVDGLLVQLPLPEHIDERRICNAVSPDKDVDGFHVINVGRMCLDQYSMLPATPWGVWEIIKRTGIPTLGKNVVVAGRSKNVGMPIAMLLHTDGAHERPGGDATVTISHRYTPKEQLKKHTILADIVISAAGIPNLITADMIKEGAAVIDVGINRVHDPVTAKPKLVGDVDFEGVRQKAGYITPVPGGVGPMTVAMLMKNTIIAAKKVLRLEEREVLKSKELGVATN

Row | Compound | IC50 (MTHFD2 [3]) | EC50 (HL-60 cells) | tumor growth [1] | tumor weight [1] | inhibitor of human MTHFD2 (MTHFD2 [2])
1 | Nc1nc2c(c(=O)[nH]1)N1C(=O)N(c3ccc(C(=O)N[C@@H](CCC(=O)O)C(=O)O)cc3)CC1CN2 (some centres unmarked) [LY345899] |  |  | statistically significantly suppresses tumor growth | decreases tumor weight | 
2 | CO[C@H](CC(=O)O)[C@@H](C)C(=O)[C@H](C)/C=C(\C)[C@H]1OC(=O)[C@H](O)[C@H](O)/C=C/[C@H](C)CCC[C@@H]1C [carolacton] |  |  |  |  | nanomolar inhibitor
3 | Nc1nc(N)c(CC(=O)Nc2ccc(C(=O)N[C@@H](CCc3nnn[nH]3)C(=O)O)nc2)c(=O)[nH]1 [Example 9, (2S)-2-((5-[2-(2,4-diamino-6-oxo-1,6-dihydropyrimidin-5-yl)acetamido]pyridin-2-yl)formamido)-4-(1H-1,2,3,4-tetrazol-5-yl)butanoic acid] | 53 nM | 35 nM |  |  | 

Continued, in another order:

Row | IC50 (MTHFD2 [3]) | EC50 (HL-60 cells) | Compound | tumor growth [1] | tumor weight [1] | inhibitor of human MTHFD2 (MTHFD2 [2])
4 | 32 nM | 200 nM | Nc1nc(N)c(NC(=O)Nc2ccc(C(=O)N[C@@H](CCCC(=O)O)C(=O)O)nc2)c(=O)[nH]1 [Example 17, (2S)-2-[(5-{[(2,4-diamino-6-oxo-1,6-dihydropyrimidin-5-yl)carbamoyl]amino}pyridin-2-yl)formamido]hexanedioic acid] |  |  | 
5 | 44 nM | 1120 nM | COc1nc(C(=O)N[C@@H](CCC(=O)O)C(=O)O)ccc1NC(=O)Cc1c(N)nc(N)[nH]c1=O [Example 29, (2S)-2-({5-[2-(2,4-diamino-6-oxo-1,6-dihydropyrimidin-5-yl)acetamido]-6-methoxypyridin-2-yl}formamido)pentanedioic acid] |  |  | 
6 | 17 nM | 7 nM | Nc1nc(N)c(NC(=O)Nc2ccc(C(=O)N[C@H](C(=O)O)C3CCCCC3)nc2)c(=O)[nH]1 [Example 12, (2S)-2-cyclohexyl-2-[(5-{[(2,4-diamino-6-oxo-1,6-dihydropyrimidin-5-yl)carbamoyl]amino}pyridin-2-yl)formamido]acetic acid] |  |  | 
